As usually defined, the inhibition is the relative decrease from the control value, in per cent.

Consider two compounds from ChEMBL document CHEMBL4507281, “Data for DCP probe BI-4394” (2021).

The target of experiment [1] is Casein kinase I isoform alpha-like (Homo sapiens) (UniProt Q8N752). As to conditions: Compound concentration 100.0 nM.
Experiment [2] concerns Receptor-type tyrosine-protein kinase FLT3 (Homo sapiens), P36888 [D835H]. As to conditions: Compound concentration 100.0 nM.
Experiment [3] has as its target Mitogen-activated protein kinase kinase kinase 4 (Homo sapiens) (UniProt Q9Y6R4). The note with it: Compound concentration 100.0 nM.
For experiment [4], the target named is Ephrin type-A receptor 5 (Homo sapiens) (UniProt P54756). As to conditions: Compound concentration 100.0 nM.
The target in experiment [5] is Cyclin-dependent kinase 13 (Homo sapiens) (UniProt Q14004). The note with it: Compound concentration 100.0 nM.
Experiment [6] addresses Serine/threonine-protein kinase TBK1 (Homo sapiens) (UniProt Q9UHD2). As to conditions: Compound concentration 100.0 nM.
The subject of experiment [7] is Tyrosine-protein kinase ABL1 (Homo sapiens), P00519 [F317L]. The note with it: Compound concentration 100.0 nM.
In experiment [8] the target is 5-hydroxytryptamine receptor 7 (Homo sapiens) (UniProt P34969). As to conditions: Compound concentration 10.0 uM.
Experiment [9] addresses Serine/threonine-protein kinase ULK2 (Homo sapiens) (UniProt Q8IYT8). The note with it: Compound concentration 100.0 nM.
Experiment [10] addresses Serine/threonine-protein kinase PLK2 (Homo sapiens) (UniProt Q9NYY3). The note with it: Compound concentration 100.0 nM.
The target in experiment [11] is Tyrosine-protein kinase Lyn (Homo sapiens) (UniProt P07948). The note with it: Compound concentration 100.0 nM.
For experiment [12], the target named is Tyrosine-protein kinase FRK (Homo sapiens) (UniProt P42685). The note with it: Compound concentration 100.0 nM.
Experiment [13] has as its target GABA-A receptor; anion channel (Rattus norvegicus) (UniProt O09028+P15431+P18506+P18508+P19969+P20236+P23574+P23576+P28471+P28473+P30191+P62813+P63079+P63138+Q91ZM7+Q9ES14). The note with it: Compound concentration 10.0 uM.
Experiment [14] deals with Phosphorylase b kinase gamma catalytic chain, skeletal muscle/heart isoform (Homo sapiens) (UniProt Q16816). As to conditions: Compound concentration 100.0 nM.
Experiment [15] addresses T1, Serine/threonine-protein kinase Nek1 (Homo sapiens) (UniProt Q96PY6).
T1 sequence (whole entry): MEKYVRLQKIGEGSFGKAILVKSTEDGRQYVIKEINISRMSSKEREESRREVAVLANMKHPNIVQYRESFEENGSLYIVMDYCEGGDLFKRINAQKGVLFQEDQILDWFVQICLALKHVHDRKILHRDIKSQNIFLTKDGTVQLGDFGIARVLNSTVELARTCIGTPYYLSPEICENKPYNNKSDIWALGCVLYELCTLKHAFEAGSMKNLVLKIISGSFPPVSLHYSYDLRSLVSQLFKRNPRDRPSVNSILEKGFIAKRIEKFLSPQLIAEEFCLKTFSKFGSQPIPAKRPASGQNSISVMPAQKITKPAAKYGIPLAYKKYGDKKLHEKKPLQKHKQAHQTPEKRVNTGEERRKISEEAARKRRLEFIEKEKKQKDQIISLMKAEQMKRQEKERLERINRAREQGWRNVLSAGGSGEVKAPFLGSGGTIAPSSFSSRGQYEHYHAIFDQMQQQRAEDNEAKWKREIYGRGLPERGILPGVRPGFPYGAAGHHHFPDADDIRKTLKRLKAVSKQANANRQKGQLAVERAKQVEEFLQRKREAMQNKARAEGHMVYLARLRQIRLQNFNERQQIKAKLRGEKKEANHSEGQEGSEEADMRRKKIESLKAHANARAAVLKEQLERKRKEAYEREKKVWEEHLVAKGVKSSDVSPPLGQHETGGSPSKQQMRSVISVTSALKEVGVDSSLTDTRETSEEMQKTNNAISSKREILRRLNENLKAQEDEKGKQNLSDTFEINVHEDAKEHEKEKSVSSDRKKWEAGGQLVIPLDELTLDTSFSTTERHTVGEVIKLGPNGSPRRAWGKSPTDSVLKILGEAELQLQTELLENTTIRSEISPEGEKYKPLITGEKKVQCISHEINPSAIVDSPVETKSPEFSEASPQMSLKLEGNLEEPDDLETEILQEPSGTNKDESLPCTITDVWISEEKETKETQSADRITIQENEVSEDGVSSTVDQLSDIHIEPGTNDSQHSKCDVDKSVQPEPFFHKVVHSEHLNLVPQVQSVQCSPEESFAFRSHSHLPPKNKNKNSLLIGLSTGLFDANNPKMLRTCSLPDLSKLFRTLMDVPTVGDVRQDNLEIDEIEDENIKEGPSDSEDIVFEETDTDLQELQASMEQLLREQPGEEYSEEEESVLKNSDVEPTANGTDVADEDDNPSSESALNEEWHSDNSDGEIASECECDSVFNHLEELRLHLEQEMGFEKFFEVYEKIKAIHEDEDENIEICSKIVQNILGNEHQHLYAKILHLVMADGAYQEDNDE
As to conditions: Compound concentration 100.0 nM.

For experiment [16], the target named is Leukocyte tyrosine kinase receptor (Homo sapiens) (UniProt P29376). The note with it: Compound concentration 100.0 nM.
Experiment [17] deals with T2, Serine/threonine-protein kinase Chk1 (Homo sapiens) (UniProt O14757).
T2 sequence (whole entry): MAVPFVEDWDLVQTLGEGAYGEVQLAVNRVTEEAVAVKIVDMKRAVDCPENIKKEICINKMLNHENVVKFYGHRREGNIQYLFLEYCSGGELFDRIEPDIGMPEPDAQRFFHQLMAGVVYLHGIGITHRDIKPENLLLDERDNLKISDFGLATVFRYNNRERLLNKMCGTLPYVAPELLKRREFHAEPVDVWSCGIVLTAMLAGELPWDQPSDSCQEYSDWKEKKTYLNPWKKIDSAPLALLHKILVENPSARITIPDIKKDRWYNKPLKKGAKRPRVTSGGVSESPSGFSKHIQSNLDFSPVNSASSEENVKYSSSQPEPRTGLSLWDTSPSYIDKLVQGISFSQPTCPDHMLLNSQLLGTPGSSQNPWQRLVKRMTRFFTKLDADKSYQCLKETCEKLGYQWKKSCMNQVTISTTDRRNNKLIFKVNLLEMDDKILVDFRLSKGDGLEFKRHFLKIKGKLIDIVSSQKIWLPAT
As to conditions: Compound concentration 100.0 nM.

The target in experiment [18] is Tyrosine-protein kinase receptor UFO (Homo sapiens) (UniProt P30530). As to conditions: Compound concentration 100.0 nM.
Experiment [19] concerns the target Insulin-like growth factor 1 receptor (Homo sapiens) (UniProt P08069). The note with it: Compound concentration 100.0 nM.
Experiment [20] deals with Mitogen-activated protein kinase 8 (Homo sapiens) (UniProt P45983). The note with it: Compound concentration 100.0 nM.

Insulin-like growth factor 1 receptor (Homo sapiens), sequence (P08069 31-736 limits assumed): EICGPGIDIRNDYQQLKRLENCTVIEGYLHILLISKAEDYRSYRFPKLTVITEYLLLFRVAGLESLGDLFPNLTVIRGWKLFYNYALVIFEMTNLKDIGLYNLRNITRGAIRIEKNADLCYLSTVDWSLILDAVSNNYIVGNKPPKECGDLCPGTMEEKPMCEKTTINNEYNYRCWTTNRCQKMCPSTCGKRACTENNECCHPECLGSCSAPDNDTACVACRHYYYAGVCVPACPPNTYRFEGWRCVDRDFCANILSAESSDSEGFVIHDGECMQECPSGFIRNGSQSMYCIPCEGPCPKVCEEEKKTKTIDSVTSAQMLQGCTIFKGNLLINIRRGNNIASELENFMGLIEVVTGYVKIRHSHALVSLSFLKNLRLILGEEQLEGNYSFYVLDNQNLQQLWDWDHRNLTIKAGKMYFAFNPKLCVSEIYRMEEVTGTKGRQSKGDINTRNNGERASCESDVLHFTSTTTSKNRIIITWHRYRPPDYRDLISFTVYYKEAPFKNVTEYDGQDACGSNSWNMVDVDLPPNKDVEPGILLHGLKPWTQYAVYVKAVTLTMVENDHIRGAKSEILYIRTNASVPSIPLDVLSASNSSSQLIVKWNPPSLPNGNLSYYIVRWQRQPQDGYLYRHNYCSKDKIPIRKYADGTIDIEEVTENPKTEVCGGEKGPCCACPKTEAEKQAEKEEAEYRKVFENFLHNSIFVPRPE
Insulin-like growth factor 1 receptor (Homo sapiens), sequence (P08069 741-1367 limits assumed): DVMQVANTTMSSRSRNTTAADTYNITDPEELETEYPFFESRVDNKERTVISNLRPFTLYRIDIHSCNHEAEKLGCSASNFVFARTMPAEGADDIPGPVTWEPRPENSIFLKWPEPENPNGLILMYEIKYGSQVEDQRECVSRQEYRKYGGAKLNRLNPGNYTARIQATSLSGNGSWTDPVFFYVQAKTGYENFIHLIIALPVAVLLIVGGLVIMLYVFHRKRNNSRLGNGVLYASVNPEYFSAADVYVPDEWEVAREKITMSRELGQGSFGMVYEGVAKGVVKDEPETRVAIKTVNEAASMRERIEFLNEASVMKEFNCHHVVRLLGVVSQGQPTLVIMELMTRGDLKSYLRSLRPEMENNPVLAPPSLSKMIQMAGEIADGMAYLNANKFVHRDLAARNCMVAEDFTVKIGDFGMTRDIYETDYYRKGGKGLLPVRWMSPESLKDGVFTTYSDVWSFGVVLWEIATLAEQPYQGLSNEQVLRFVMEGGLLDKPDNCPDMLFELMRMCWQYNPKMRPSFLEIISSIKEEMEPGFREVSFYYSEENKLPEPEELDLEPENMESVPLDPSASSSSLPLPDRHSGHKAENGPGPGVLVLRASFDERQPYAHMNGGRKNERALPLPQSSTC
Serine/threonine-protein kinase ULK2 (Homo sapiens), sequence (Q8IYT8 whole entry): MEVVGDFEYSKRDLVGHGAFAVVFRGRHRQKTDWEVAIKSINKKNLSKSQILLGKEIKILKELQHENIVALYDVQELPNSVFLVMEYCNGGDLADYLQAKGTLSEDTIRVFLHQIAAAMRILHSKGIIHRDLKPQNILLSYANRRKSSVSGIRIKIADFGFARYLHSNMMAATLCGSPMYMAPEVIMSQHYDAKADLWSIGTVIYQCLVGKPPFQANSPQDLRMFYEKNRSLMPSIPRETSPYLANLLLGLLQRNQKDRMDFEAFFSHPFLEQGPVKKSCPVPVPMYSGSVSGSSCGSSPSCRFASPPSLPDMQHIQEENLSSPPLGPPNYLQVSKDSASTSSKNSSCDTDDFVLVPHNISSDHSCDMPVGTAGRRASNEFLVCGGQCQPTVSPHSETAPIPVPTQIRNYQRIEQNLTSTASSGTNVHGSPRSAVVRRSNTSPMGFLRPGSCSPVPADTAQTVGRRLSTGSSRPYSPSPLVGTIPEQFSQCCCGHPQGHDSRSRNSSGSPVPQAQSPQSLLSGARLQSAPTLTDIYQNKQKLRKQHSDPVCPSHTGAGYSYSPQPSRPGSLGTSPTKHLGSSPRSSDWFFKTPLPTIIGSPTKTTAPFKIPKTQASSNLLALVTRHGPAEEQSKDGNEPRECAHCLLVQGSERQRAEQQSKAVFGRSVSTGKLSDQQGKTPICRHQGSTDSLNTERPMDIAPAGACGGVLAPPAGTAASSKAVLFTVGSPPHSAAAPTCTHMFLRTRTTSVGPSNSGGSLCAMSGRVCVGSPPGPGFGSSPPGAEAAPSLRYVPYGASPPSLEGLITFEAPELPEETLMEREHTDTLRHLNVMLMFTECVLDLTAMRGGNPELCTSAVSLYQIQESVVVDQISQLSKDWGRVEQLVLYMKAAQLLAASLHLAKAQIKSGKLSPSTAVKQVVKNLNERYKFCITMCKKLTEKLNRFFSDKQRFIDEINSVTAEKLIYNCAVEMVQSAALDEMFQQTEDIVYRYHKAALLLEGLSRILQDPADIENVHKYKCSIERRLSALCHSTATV
Serine/threonine-protein kinase PLK2 (Homo sapiens), sequence (Q9NYY3 whole entry, looked up): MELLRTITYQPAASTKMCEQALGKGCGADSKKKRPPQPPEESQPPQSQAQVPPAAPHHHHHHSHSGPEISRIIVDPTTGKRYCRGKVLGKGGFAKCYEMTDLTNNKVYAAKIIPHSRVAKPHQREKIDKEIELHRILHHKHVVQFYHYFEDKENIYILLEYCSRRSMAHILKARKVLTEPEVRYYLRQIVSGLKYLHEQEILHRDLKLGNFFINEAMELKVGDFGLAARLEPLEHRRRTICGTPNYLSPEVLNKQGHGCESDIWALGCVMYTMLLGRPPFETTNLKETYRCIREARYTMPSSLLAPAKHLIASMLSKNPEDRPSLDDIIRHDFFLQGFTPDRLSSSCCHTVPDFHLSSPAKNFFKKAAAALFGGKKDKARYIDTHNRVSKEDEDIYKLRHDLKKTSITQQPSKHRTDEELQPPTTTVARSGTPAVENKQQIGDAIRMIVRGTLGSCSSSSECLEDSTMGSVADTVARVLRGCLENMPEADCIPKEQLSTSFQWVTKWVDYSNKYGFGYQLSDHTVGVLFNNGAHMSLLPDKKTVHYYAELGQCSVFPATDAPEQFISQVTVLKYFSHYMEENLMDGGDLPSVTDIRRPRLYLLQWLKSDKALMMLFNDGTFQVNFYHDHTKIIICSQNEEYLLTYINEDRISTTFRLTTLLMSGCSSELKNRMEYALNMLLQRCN
5-hydroxytryptamine receptor 7 (Homo sapiens), sequence (P34969 whole entry): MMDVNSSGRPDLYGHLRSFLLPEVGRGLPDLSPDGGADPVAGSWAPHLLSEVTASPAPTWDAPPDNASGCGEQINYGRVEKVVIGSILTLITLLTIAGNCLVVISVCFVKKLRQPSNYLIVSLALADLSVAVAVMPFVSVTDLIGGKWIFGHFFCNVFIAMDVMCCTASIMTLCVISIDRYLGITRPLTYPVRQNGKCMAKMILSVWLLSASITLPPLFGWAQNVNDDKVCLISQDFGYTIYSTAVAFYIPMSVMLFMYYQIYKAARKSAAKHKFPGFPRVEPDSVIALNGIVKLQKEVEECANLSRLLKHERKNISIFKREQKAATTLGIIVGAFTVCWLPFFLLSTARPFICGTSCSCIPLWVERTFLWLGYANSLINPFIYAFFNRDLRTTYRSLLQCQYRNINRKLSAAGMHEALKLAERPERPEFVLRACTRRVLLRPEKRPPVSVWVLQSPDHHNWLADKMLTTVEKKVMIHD
Tyrosine-protein kinase receptor UFO (Homo sapiens), sequence (P30530 whole entry): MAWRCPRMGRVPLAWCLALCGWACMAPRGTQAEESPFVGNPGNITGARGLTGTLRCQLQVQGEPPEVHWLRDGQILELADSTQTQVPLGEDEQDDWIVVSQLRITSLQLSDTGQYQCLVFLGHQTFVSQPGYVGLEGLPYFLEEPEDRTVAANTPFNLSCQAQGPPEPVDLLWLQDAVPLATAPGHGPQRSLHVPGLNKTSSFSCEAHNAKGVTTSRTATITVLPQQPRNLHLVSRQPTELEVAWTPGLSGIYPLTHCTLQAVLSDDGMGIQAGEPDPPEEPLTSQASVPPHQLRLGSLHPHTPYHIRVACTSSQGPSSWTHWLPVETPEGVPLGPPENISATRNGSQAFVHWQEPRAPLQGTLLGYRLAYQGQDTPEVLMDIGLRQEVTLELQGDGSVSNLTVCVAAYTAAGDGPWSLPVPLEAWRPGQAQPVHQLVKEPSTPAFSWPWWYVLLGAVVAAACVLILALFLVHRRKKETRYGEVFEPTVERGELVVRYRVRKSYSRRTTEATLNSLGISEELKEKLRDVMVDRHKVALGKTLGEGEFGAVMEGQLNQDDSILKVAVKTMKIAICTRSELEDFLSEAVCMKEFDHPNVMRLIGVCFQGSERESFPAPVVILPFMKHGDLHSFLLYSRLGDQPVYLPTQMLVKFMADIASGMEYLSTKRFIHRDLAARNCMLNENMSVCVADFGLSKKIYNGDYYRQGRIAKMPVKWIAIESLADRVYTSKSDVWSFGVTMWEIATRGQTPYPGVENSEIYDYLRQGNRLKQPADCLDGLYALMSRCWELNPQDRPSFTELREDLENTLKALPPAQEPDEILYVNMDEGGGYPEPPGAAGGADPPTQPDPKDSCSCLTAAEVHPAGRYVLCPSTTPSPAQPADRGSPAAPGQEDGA
Phosphorylase b kinase gamma catalytic chain, skeletal muscle/heart isoform (Homo sapiens), sequence (Q16816 whole entry, looked up, canonical isoform): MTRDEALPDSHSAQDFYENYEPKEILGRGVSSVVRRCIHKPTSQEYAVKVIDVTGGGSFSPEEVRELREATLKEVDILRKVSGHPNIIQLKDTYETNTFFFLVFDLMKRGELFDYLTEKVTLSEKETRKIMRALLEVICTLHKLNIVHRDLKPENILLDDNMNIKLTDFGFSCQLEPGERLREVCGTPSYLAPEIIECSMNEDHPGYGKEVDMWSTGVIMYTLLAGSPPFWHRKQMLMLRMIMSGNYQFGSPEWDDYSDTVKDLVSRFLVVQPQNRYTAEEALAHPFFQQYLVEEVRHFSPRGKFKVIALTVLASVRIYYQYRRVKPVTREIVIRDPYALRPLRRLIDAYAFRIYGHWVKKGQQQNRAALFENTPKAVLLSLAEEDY

`CCOC(=O)c1cc2cc(-c3cc(C(=O)NCc4ccc(C(=O)O)cc4)nn3C)ccc2[nH]1` [BI 4394]: the residual activity in experiment [1] is 100%; in experiment [2] it was 100%; in [3] it was 91%; in experiment [4], 100%; in experiment [5] it was 83%; in experiment [6] it was 84%. Besides, the residual activity in [7] was 61%; in experiment [9], 78%; in experiment [10], 80%; in experiment [11] it was 100%; in [12], 100%; in experiment [14] it was 100%. The residual activity in [15] was 100%; in [16] it was 100%; in experiment [17], 100%; in [18], 89%; in experiment [19], 82%; in experiment [20], 96%. For the same compound, the inhibition in [8] is 5.88%; in [13] it was 15.3%.

As to `Cn1nc(C(=O)NCc2ccc(C(=O)O)cc2)cc1-c1ccc2[nH]ccc2c1` [BI 4395], the residual activity in experiment [1] is 94%; in experiment [2], 46%; in [3] it was 86%; in [4], 92%; in experiment [5], 72%; in [6], 77%. Besides, the residual activity was 87% in experiment [7]; 98% in experiment [9]; 100% in [10]; 100% in experiment [11]; 100% in experiment [12]; 100% in experiment [14]. Besides, the residual activity in experiment [15] is 100%; in experiment [16], 81%; in experiment [17], 83%; in experiment [18], 89%; in experiment [19] it was 91%; in experiment [20] it was 88%. Besides, the inhibition in experiment [8] was -4.31%; in [13], 26.6%.
